[NH3+]O.[NH3+]O.[O-]n1nnnc1-c1nnnn1[O-]
solubility (mole fraction)
Settings | 298.15 K | 303.15 K | 308.15 K | 313.15 K | 318.15 K | 323.15 K | 328.15 K | 333.15 K
in acetic acid | 7.44e-05 | 8.86e-05 | 0.000105 | 0.000125 | 0.000146 | 0.000171 | 0.000199 | 0.000231
in ethanol | 1.35e-05 | 1.54e-05 | 1.76e-05 | 2.01e-05 | 2.27e-05 | 2.56e-05 | 2.88e-05 | 3.24e-05
in formic acid | 0.00144 | 0.00163 | 0.00183 | 0.00205 | 0.00229 | 0.00254 | 0.00283 | 0.00313
in water | 0.000128 | 0.000156 | 0.00019 | 0.000228 | 0.000274 | 0.000325 | 0.000385 | 0.000456

— BigSolDB 2.1
